Consider 44 compounds from patent US12065445B2, “CDK2 inhibitors and methods of using the same” (Cedilla Therapeutics, Inc., priority 2021, dated 2024).

This assay relates to Kuramochi cells labeled with mApple-H2B. The assay is described as follows: IncuCyte Cell Proliferation Assay. To be noted: 72 h. It counts as cell-based. Here is the method: IncuCyte® assay was used to measure the effect of disclosed compounds on cell proliferation. Fluorescent microscopy images of cells were taken immediately after compound treatment and 72 hours later. Image analysis software was used to obtain cell counts as a function of compound concentration. Kuramochi cells labeled with mApple-H2B were seeded on 384-well assay-ready plates. Plates were placed in an IncuCyte® (Sartorius) and scanned at 0 and 72 hours. IncuCyte® software was used to count the number of fluorescent nuclei in each well. The fold change in cell count from 0 to 72 hours in wells treated with increasing compounds concentrations (10 pts, ½ log dilution, 20 μM top concentration) was normalized to DMSO control wells. The normalized cell counts were fit with dose response curves and a […] was calculated.

Molecules are shown by their SMILES. pIC50: −log10 of the molar value.

Turning to `C[C@@H](OCC1CCCCC1)[C@@H](COC1CCNCC1)NC(=O)[C@@H]1CN(C(=O)c2cncs2)CC12CN(C(=O)[C@H]1CC1(C)C)C2` [I-329], the negative logarithm of the IC50 (pIC50) is 5.30 to 6.30.

Regarding `C[C@@H](OCC12CCC(CC1)OC2)[C@H](NC(=O)[C@@H]1CN(C(=O)c2cncs2)CC12CN(C(=O)C(C)(C)C1CC1)C2)C(C)(C)O` [I-334], the negative logarithm of the IC50 (pIC50) was < 4.70.

Turning to `C[C@@H](OCC1CCCCC1)[C@H](NC(=O)[C@@H]1CN(C(=O)c2cnn(Cc3ccccc3)c2)CC12CN(C(=O)[C@H]1CC1(C)C)C2)C(=O)N1CCC(c2nccs2)CC1` [I-445], the pIC50 is ≥ 6.30.

On to `CNC(=O)C(NC(=O)[C@@H]1CN(C(=O)c2cnn(Cc3ccccc3)c2)CC12CN(C(=O)[C@H]1CC1(C)C)C2)c1cccc(C2CCCCC2)n1` (some centres unmarked) [I-391], for which the pIC50 is 5.30 to 6.30.

`CC(C)(O)C(NC(=O)[C@@H]1CN(C(=O)c2cncs2)CC12CN(C(=O)[C@H]1CC1(C)C)C2)c1cccc(C2CCOCC2)n1` (some centres unmarked) [I-423]: the pIC50 was < 4.70.

As to `COC[C@H]1CCCN(C(=O)[C@@H](NC(=O)[C@@H]2CN(C(=O)c3cncs3)CC23CN(C(=O)[C@H]2CC2(C)C)C3)[C@@H](C)OC[C@H]2CC[C@H](NC(C)=O)CC2)C1` [I-434], the pIC50 was < 4.70.

For `C[C@@H](OCC12CCC(CC1)OC2)[C@H](NC(=O)[C@@H]1CN(C(=O)c2cncs2)CC12CN(C(=O)[C@H]1CC1(C)C)C2)C(=O)N1CCCC2(COC2)C1` [I-453], the negative-log IC50 (pIC50) was 4.70 to 5.30.

Turning to `Cc1nc(C)c(C(=O)N2C[C@@H](C(=O)NC(c3cccc(C4CCOCC4)n3)C(C)(C)O)C3(C2)CN(C(=O)[C@H]2CC2(C)C)C3)s1` (some centres unmarked) [I-437], the negative-log IC50 (pIC50) is < 4.70.

Take `Cc1ccc(CNC(=O)[C@@H]2CN(C(=O)c3cnn(Cc4ccncc4F)c3)CC23CN(C(=O)[C@H]2CC2(C)C)C3)nn1` [I-35]: the negative logarithm of the IC50 (pIC50) was < 4.70.

For `CNC(=O)[C@@H](NC(=O)[C@@H]1CN(C(=O)c2cnn(Cc3ccccc3)c2)CC12CN(C(=O)[C@H]1CC1(C)C)C2)[C@@H](C)OC[C@H]1CC[C@H](O)CC1` [I-413], the pIC50 is < 4.70.

As for `CC1(C)C[C@@H]1C(=O)N1CC2(CN(C(=O)c3cnn(Cc4ccccc4)c3)C[C@H]2C(=O)NCc2ccc(C(F)(F)F)nn2)C1` [I-392], the negative-log IC50 (pIC50) was < 4.70.

With `C[C@@H](OCC1CCC(F)(F)CC1)[C@H](NC(=O)[C@@H]1CN(C(=O)c2cncs2)CC12CN(C(=O)C(C)(C)C1CC1)C2)C(=O)N1CCC(O)CC1` [I-337], the negative-log IC50 (pIC50) was 5.30 to 6.30.

As for `C[C@@H](OCC1CCCCC1)[C@H](NC(=O)[C@@H]1CN(C(=O)c2cnn(Cc3ccccc3)c2)CC12CN(C(=O)[C@H]1CC1(C)C)C2)C(=O)N1CCC(c2ccncc2)CC1` [I-300], the pIC50 was ≥ 6.30.

Consider `C[C@@H](OCc1ccc(C(F)(F)F)cc1)[C@H](NC(=O)[C@@H]1CN(C(=O)c2cncs2)CC12CN(C(=O)[C@H]1CC1(C)C)C2)C(=O)N1C2CCC1COC2` [I-470], for which the negative-log IC50 (pIC50) is 5.30 to 6.30.

`[2H]C([2H])([2H])OC[C@H]1CCCN(C(=O)[C@@H](NC(=O)[C@@H]2CN(C(=O)c3cncs3)CC23CN(C(=O)C(C)(C)C2CC2)C3)[C@@H](C)OCC23CCC(CC2)OC3)C1` [I-459] showed a negative logarithm of the IC50 (pIC50) of 4.70 to 5.30.

For `C[C@@H](OCC12CCC(CC1)OC2)[C@H](NC(=O)[C@@H]1CN(C(=O)c2cnco2)CC12CN(C(=O)[C@H]1CC1(C)C)C2)C(C)(C)O` [I-450], the pIC50 was < 4.70.

Regarding `Cc1nc(C)c(C(=O)N2C[C@@H](C(=O)N[C@H](C(=O)N3CCC4(CC3)COC4)[C@@H](C)OCC34CCC(CC3)OC4)C3(C2)CN(C(=O)[C@H]2CC2(C)C)C3)s1` [I-343], the negative logarithm of the IC50 (pIC50) was < 4.70.

For `CNC(=O)[C@@H](NC(=O)[C@@]1(C)CN(C(=O)c2cnn(Cc3ccccc3)c2)CC12CN(C(=O)[C@H]1CC1(C)C)C2)[C@@H](C)OCC1CCCCC1` [I-499B], the negative-log IC50 (pIC50) is < 4.70.

`C[C@@H](OCC1CCCCC1)C(NC(=O)[C@@H]1CN(C(=O)c2cncs2)CC12CN(C(=O)[C@H]1CC1(C)C)C2)c1nnco1` (stereo in doubt) [I-415, (S)—N-((1S,2R)-2-(cyclohexylmethoxy)-1-(1,3,4-oxadiazol-2-yl)propyl)-2-((S)-2,2-dimethylcyclopropane-1-carbonyl)-6-(thiazole-5-carbonyl)-2,6-diazaspiro[3.4]octane-8-carboxamide] showed a pIC50 of 5.30 to 6.30.

In the case of `COC[C@H]1CCCN(C(=O)[C@@H](NC(=O)[C@@H]2CN(C(=O)c3cncs3)CC23CN(C(=O)[C@H]2CC2(C)C)C3)[C@@H](C)OC[C@H]2CC[C@H](N)CC2)C1` [I-433], the pIC50 is < 4.70.

`C[C@@H](OCC12CCC(CC1)OC2)[C@H](NC(=O)[C@@H]1CN(C(=O)c2cnco2)CC12CN(C(=O)C(C)(C)C1CC1)C2)C(C)(C)O` [I-448]: the negative logarithm of the IC50 (pIC50) is < 4.70.

Turning to `C[C@@H](OCC1CCCCC1)[C@H](NC(=O)[C@@H]1CN(C(=O)c2cnn(Cc3ccccc3)c2)CC12CN(C(=O)[C@H]1CC1(C)C)C2)C(=O)N1CC[C@H]1CN` [I-310], the pIC50 was 4.70 to 5.30.

Turning to `C[C@@H](OCC1CCCCC1)[C@H](NC(=O)[C@@H]1CN(C(=O)c2cnn(Cc3ccccc3)c2)CC12CN(C(=O)[C@H]1CC1(C)C)C2)C(=O)N1CCC(c2cnc[nH]2)CC1` [I-438], the negative logarithm of the IC50 (pIC50) is 5.30 to 6.30.

Turning to `C[C@@H](OCC12CCC(CC1)OC2)[C@H](NC(=O)[C@@H]1CN(C(=O)c2cncs2)CC12CN(C(=O)[C@H]1CC1(C)C)C2)C(=O)N1CCC(C)(C)CC1` [I-452], the pIC50 was ≥ 6.30.

Regarding `C[C@@H](OCC1CCC(F)(F)CC1)[C@@H](COC1CCOCC1)NC(=O)[C@@H]1CN(C(=O)c2cncs2)CC12CN(C(=O)[C@H]1CC1(C)C)C2` [I-314], the pIC50 was ≥ 6.30.

Consider `CNC(=O)[C@@H](NC(=O)[C@@H]1CN(C(=O)c2cncs2)CC12CN(CC(C)(C)C)C2)[C@@H](C)OCC12CCC(CC1)OC2` [I-347], for which the negative-log IC50 (pIC50) is < 4.70.

For the compound `CC1(C)C[C@@H]1C(=O)N1CC2(CN(C(=O)c3cnn(Cc4ccccc4)c3)C[C@H]2C(=O)NC[C@H]2CC[C@@H](C)CC2)C1` [I-388], the pIC50 was 5.30 to 6.30.

Turning to `C[C@@H](OCC1CCC(F)(F)CC1)[C@@H](COC1CCC(F)(F)CC1)NC(=O)[C@@H]1CN(C(=O)c2cncs2)CC12CN(C(=O)[C@H]1CC1(C)C)C2` [I-315], the negative logarithm of the IC50 (pIC50) was 5.30 to 6.30.

Take `CNC(=O)[C@@H](NC(=O)C1(C)CN(C(=O)c2cnn(Cc3ccccc3)c2)CC12CN(C(=O)[C@H]1CC1(C)C)C2)[C@@H](C)OCc1ccccc1` (stereo partly drawn) [I-498, 6-(1-benzyl-1H-pyrazole-4-carbonyl)-N-((2S,3R)-3-(benzyloxy)-1-(methylamino)-1-oxobutan-2-yl)-2-((S)-2,2-dimethylcyclopropane-1-carbonyl)-8-methyl-2,6-diazaspiro[3.4]octane-8-carboxamide]: the pIC50 was < 4.70.

`CNC(=O)C(NC(=O)[C@@H]1CN(C(=O)c2cncs2)CC12CN(C(=O)[C@H]1CC1(C)C)C2)c1ccc(C)nn1` (some centres unmarked) [I-420]: the negative-log IC50 (pIC50) is < 4.70.

`C[C@@H](OCC1CCCCC1)[C@H](NC(=O)[C@@H]1CN(C(=O)c2cnn(Cc3ccccc3)c2)CC12CN(C(=O)[C@H]1CC1(C)C)C2)C(=O)O` [I-477]: the pIC50 is < 4.70.

With `C[C@@H](OCC12CCC(CC1)OC2)[C@H](NC(=O)[C@@H]1CN(C(=O)c2sc(Cl)nc2Cl)CC12CN(C(=O)C(C)(C)C1CC1)C2)C(C)(C)O` [I-471], the pIC50 was < 4.70.

Turning to `CNC(=O)C(NC(=O)[C@@H]1CN(C(=O)c2cncs2)CC12CN(C(=O)C(C)(C)C1CC1)C2)c1cccc(C2CCOCC2)n1` (some centres unmarked) [I-338], the pIC50 was < 4.70.

For the compound `CC1(C)C[C@@H]1C(=O)N1CC2(CN(C(=O)c3cncs3)C[C@H]2C(=O)NC(c2cccc(C3CCOCC3)n2)C2CCCO2)C1` (some centres unmarked) [I-497], the pIC50 is < 4.70.

The compound `Cc1nc(C)c(C(=O)N2C[C@@H](C(=O)N[C@H](C(=O)N3CCC(OC(F)(F)F)CC3)[C@@H](C)OCC34CCC(CC3)OC4)C3(C2)CN(C(=O)[C@H]2CC2(C)C)C3)s1` [I-455] showed a pIC50 of 5.30 to 6.30.

Consider `CC1(C)C[C@@H]1C(=O)N1CC2(CN(C(=O)c3cncs3)C[C@H]2C(=O)NCc2cccc(C3CCCCC3)n2)C1` [I-414], for which the negative-log IC50 (pIC50) was 5.30 to 6.30.

Take `C[C@@H](OCC12CCC(CC1)OC2)[C@H](NC(=O)[C@@H]1CN(C(=O)c2cncs2)CC12CN(C(=O)[C@H]1CC1(C)C)C2)C(=O)N1CCC2(CC1)CC2` [I-458]: the pIC50 is 5.30 to 6.30.

On to `CC(O[C@H](C)[C@@H](COC1CCC(F)(F)CC1)NC(=O)[C@@H]1CN(C(=O)c2cncs2)CC12CN(C(=O)[C@H]1CC1(F)F)C2)C1CCC(F)(F)CC1` (some centres unmarked) [I-316], for which the negative logarithm of the IC50 (pIC50) is < 4.70.

As to `C[C@@H](OCC1CCOCC1)[C@@H](COC1CCC(F)(F)CC1)NC(=O)[C@@H]1CN(C(=O)c2cncs2)CC12CN(C(=O)C(C)(C)C1CC1)C2` [I-333, (S)-2-(2-cyclopropyl-2-methylpropanoyl)-N-((2R,3R)-1-((4,4-difluorocyclohexyl)oxy)-3-((tetrahydro-2H-pyran-4-yl)methoxy)butan-2-yl)-6-(thiazole-5-carbonyl)-2,6-diazaspiro[3.4]octane-8-carboxamide], the negative logarithm of the IC50 (pIC50) is 4.70 to 5.30.

Regarding `COC[C@H]1CCCN(C(=O)[C@@H](NC(=O)[C@@H]2CN(C(=O)c3cncs3)CC23CN(C(=O)[C@H]2CC2(C)C)C3)[C@@H](C)OC[C@H]2CC[C@@H](OC)CC2)C1` [I-408], the pIC50 is 5.30 to 6.30.

As to `CN(C)C(=O)C(NC(=O)[C@@H]1CN(C(=O)c2cncs2)CC12CN(C(=O)C(C)(C)C1CC1)C2)c1cccc(C2CCOCC2)n1` (some centres unmarked) [I-340], the pIC50 was < 4.70.

For `CNC(=O)[C@@H](NC(=O)[C@@H]1CN(C(=O)c2cncs2)CC12CN(Cc1cnco1)C2)[C@@H](C)OCC12CCC(CC1)OC2` [I-350], the negative-log IC50 (pIC50) is < 4.70.

As for `C[C@@H](OCC1CC(F)(F)C1)[C@@H](CO)NC(=O)[C@@H]1CN(C(=O)c2cncs2)CC12CN(C(=O)[C@H]1CC1(C)C)C2` [I-412], the pIC50 was < 4.70.

`Cc1nc(C)c(C(=O)N2C[C@@H](C(=O)N[C@H](C(=O)N3CCC(C(F)(F)F)CC3)[C@@H](C)OCC34CCC(CC3)OC4)C3(C2)CN(C(=O)[C@H]2CC2(C)C)C3)s1` [I-456] gave a pIC50 of 5.30 to 6.30.
